# Results published in patent US12503455B2, “Nucleic acid-binding photoprobes and uses thereof” (Arrakis Therapeutics, Inc., priority 2017, dated 2025).
# “Also recorded” adds a separate entry of the source.
# Columns and labels:
# Aptamer-21 = conditions: Lau et al., ACS Nano 2011; read-out: Kd of Aptamer-21 against compound 1b; cited from earlier work
# Aptamer 21-E = assay: SPR binding to mutant Aptamer 21-E; conditions: data not shown; listed as ARK-139
# From the text: Surface plasmon resonance (SPR) may be used to screen ligands and hook and click constructs for binding to a target RNA of interest. SPR is especially useful for monitoring biomolecular interactions in real time. Typically, target species and unrelated control are immobilized to a sensor chip, then analytes (compounds/fragments) are flowed over the surface. Binding of the compound to target species results in increase of SPR signal (association phase). Washing away bound compound with buffer results in a decrease of SPR signal (dissociation phase). Fitting of sensorgrams recorded at different compound concentrations is performed to an appropriate interaction model. The method allows extraction of kinetic parameters (ka, kd→KD). Requirements/limitations include that the ka/kd values be in reasonable ranges; and the target size must not be too large (<100 kDa). It is an excellent method to screen fragments and profile or validate hits. BC4000 may be used for primary screening (up to 4,000 data pts/week). Biacore T200 is suitable for hit profiling and validation.
# Experiments were performed on a MASS-2 (Sierra Sensors) at 25° C. A high capacity amine chip was equilibrated with PBS. The chip was conditioned with alternating injections of 10 mM HCl and 10 mM NaOH in 1 M NaCl. […]
smiles,measurement,setting,value
COC(=O)C1=C(COCc2cn(CCOCCOCCO)nn2)NC(c2ccncc2)=NC1c1ccc(F)cc1Cl (racemic) [I-1],Kd,Aptamer-21,50 nM
same,binding to Aptamer 21-E by SPR,Aptamer 21-E,not to bind; also recorded: did not bind
